Laboratory results from patent EP0774454A1, “Excitatory amino acid receptor antagonists” (ELI LILLY AND COMPANY, priority 1995, dated 1997).

System: metabotropic glutamate receptors
Assay: displacement of 1S,3R-ACPD-sensitive [3H]glutamate binding to rat brain cell membranes (crude membranes of rat forebrain)
Procedure: The binding of [^3H]glutamate was conducted with crude membranes of rat forebrain as described by Schoepp and True, Neuroscience Lett., 145, 100-104 (1992) and Wright et al., J. Neurochemistry 63, 938-945, 1994.

IC50 | Structure (SMILES) | affinity for metabotropic glutamate receptors (result in words)
 | N[C@]1(C(=O)O)C[C@@H](SCc2ccco2)[C@@H]2[C@@H](C(=O)O)[C@@H]21 (racemic) [Example 8, 1SR,2RS,4RS,5SR,6SR-2-Amino-4-((2-furanylmethyl)thio)bicyclo[3.1.0]hexane-2,6-dicarboxylic acid] | essentially inactive
242 nM | NC1(C(=O)O)CC(Sc2ccccc2)C2C(C(=O)O)C21 (stereo not drawn) [Example 1, 1SR,2RS,4SR,5SR,6SR-2-Amino-4-(phenylthio)-bicyclo[3.1.0]hexane-2,6-dicarboxylic acid] | 
